Measurements from patent EP4775568A1, “NOVEL COMPOUND AND USE THEREOF FOR TREATING PSORIASIS” (Gwangju Institute of Science and Technology, priority 2023, dated 2025).

Target: T1, CMKLR1 (Homo sapiens, UniProt Q99788)
T1 construct: expressed in transfected cells; host or cells: CHO-K1 cells expressing Gα-16 (CHO-Ga16-CMKLR1)
T1 sequence (Q99788 1-373): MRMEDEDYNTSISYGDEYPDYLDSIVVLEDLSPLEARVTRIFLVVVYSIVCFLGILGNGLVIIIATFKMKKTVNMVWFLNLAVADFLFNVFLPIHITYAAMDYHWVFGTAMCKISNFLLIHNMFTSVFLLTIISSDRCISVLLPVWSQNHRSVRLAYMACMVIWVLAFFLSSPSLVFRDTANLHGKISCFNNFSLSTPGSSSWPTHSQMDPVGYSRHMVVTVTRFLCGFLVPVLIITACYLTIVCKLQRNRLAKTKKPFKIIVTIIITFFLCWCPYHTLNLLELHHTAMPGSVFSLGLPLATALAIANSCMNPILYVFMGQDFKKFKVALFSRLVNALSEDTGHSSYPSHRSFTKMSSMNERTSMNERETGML
Assay: Calcium mobilization assay (CHO-Ga16-CMKLR1 cells, chemerin-9 induced signal)
Format: cell-based
Details: for IC50: calcium signal induced by 2.5 nM chemerin-9; for inhibition at 10 µM: read-out: CMKLR1 activity in CHO cells (% inhibition at 10 µM), 10 µM compound, relative to calcium signal induced by 2.5 nM chemerin-9
Experimental: To establish a CMKLR1 calcium mobilization cell evaluation system, CHO-K1 cells expressing Gα-16 were transfected with pcDNA3.1-derived human CMKLR1-expressing plasmids using Lipofectamine 2000 (Invitrogen, Waltham, Massachusetts, USA). […] The established cell line (CHO-Ga16-CMKLR1) was cultured in F-12 medium (Invitrogen) supplemented with 10% (v/v) fetal bovine serum (FBS; Invitrogen), 0.5 mg/mL geneticin, 0.2 mg/mL hygromycin B (Clontech), and 1% (v/v) antibiotic-antimycotic solution (Invitrogen) under 5% CO2 at 37°C.
100 µL/well was added to a 96-well plate (Corning) and incubated for 24 h. The buffer solution was prepared by adding 1 M HEPES solution to Hanks' Balanced Salt Solution (HBSS) (Invitrogen) and adjusting the pH to 7.4 by dropwise addition of 1 M NaOH.
The fluorescent dye solution was prepared using the buffer provided with the Calcium 5 Assay Kit (Molecular Devices). 40 µL/well of dye solution was added to each well and incubated at 37°C in a 5% CO2 atmosphere for 30 min. […] The final DMSO concentration was adjusted to 2%. 40 µL of each compound solution was added to the well and incubated for 30 min. […] Prism 5 software (GraphPad) was then used to obtain IC50 values for various compounds. IC50 values were derived based on concentration-response curves, and all experiments were repeated at least three times.

C[C@@H](CC(=O)O)c1ccc(OCc2ccc3c(-c4ccc(O)cc4Cl)nn(C4CCCC4)c3c2)cc1 [Compound 42, (S)-3-(4-((3-(2-chloro-4-hydroxyphenyl)-1-cyclopentyl-1H-indazol-6-yl)methoxy)phenyl)butanoic acid]
IC50 (Table 3, IC50 class): 100 to 1000 nM

CC(CC(=O)O)c1ccc(OCc2ccc3c(-c4ccccc4)nn(CC4CCCCC4)c3c2)cc1 (centres unmarked) [Compound 83, 3-(4-((1-(cyclohexylmethyl)-3-phenyl-1H-indazol-6-yl)methoxy)phenyl)butanoic acid]
inhibition at 10 µM: 28%

CC(CC(=O)O)c1ccc(OCc2ccc3c(-c4ccc(Cl)cc4)nn(C4CCCC4)c3c2)cc1 (centres unmarked) [Compound 18, 3-(4-((3-(4-chlorophenyl)-1-cyclopentyl-1H-indazol-6-yl)methoxy)phenyl)butanoic acid]
IC50 (Table 2, IC50 class): > 1000 nM

CC(CC(=O)O)c1ccc(OCc2cnc3c(-c4ccc(O)c(Cl)c4)nn(C4CCCC4)c3c2)cc1 (centres unmarked) [Compound 75, 3-(4-((3-(3-chloro-4-hydroxyphenyl)-1-cyclopentyl-1H-pyrazolo[4,3-b]pyridin-6-yl)methoxy)phenyl)butanoic acid]
IC50 (Table 4, IC50 class): 100 to 1000 nM

COc1ccc(-c2nn(C3CCCC3)c3cc(COc4ccc(C(C)CC(=O)O)cc4)ccc23)cc1 (centres unmarked) [Compound 15, 3-(4-((1-cyclopentyl-3-(4-methoxyphenyl)-1H-indazol-6-yl)methoxy)phenyl)butanoic acid]
IC50 (Table 2, IC50 class): > 1000 nM

CC(C)Cn1nc(-c2ccccc2)c2ccc(COc3ccc(C(C)CC(=O)O)cc3)cc21 (centres unmarked) [Compound 80, 3-(4-((1-isobutyl-3-phenyl-1H-indazol-6-yl)methoxy)phenyl)butanoic acid]
inhibition at 10 µM: 52%

CC(=O)Nc1ccc(-c2nn(C3CCCC3)c3cc(COc4ccc(C(C)CC(=O)O)cc4)ccc23)cc1 (centres unmarked) [Compound 60, 3-(4-((3-(4-acetamidophenyl)-1-cyclopentyl-1H-indazol-6-yl)methoxy)phenyl)butanoic acid]
IC50 (Table 4, IC50 class): > 1000 nM

C[C@@H](CC(=O)O)c1ccc(OCc2ccc3c(-c4ccc(O)c([N+](=O)[O-])c4)nn(C4CCCC4)c3c2)cc1 [Compound 37, (S)-3-(4-((1-cyclopentyl-3-(4-hydroxy-3-nitrophenyl)-1H-indazol-6-yl)methoxy)phenyl)butanoic acid]
IC50 (Table 3, IC50 class): > 1000 nM

COc1ccc(-c2nn(C3CCCC3)c3cc(COc4ccc([C@H](C)CC(=O)O)cc4)ccc23)cc1 [Compound 57, (R)-3-(4-((1-cyclopentyl-3-(4-methoxyphenyl)-1H-indazol-6-yl)methoxy)phenyl)butanoic acid]
IC50 (Table 4, IC50 class): > 1000 nM

CC(CC(=O)O)c1ccc(OCc2ccc3c(-c4ccc(OC/C=C/C(=O)O)cc4)nn(C4CCCC4)c3c2)cc1 (centres unmarked) [Compound 28, (E)-4-(4-(6-((4-(1-carboxypropan-2-yl)phenoxy)methyl)-1-cyclopentyl-1H-indazol-3-yl)phenoxy)but-2-enoic acid]
IC50 (Table 2, IC50 class): > 1000 nM

CC(CC(=O)O)c1ccc(OCc2ccc3c(-c4cccc5ccccc45)nn(C4CCCC4)c3c2)cc1 (centres unmarked) [Compound 26, 3-(4-((1-cyclopentyl-3-(naphthalen-1-yl)-1H-indazol-6-yl)methoxy)phenyl)butanoic acid]
IC50 (Table 2, IC50 class): > 1000 nM

C[C@@H](CC(=O)O)c1ccc(OCc2ccc3c(-c4cc(F)c(O)cc4F)nn(C4CCCC4)c3c2)cc1 [Compound 45, (S)-3-(4-((1-cyclopentyl-3-(2,5-difluoro-4-hydroxyphenyl)-1H-indazol-6-yl)methoxy)phenyl)butanoic acid]
IC50 (Table 3, IC50 class): 100 to 1000 nM

C[C@@H](CC(=O)O)c1ccc(OCc2ccc3c(-c4cc(Cl)c(O)c(Cl)c4)nn(C4CCCC4)c3c2)cc1 [Compound 44, (S)-3-(4-((1-cyclopentyl-3-(3,5-dichloro-4-hydroxyphenyl)-1H-indazol-6-yl)methoxy)phenyl)butanoic acid]
IC50 (Table 3, IC50 class): 100 to 1000 nM

C[C@@H](CC(=O)O)c1ccc(OCc2ccc3c(-c4ccc(O)c(O)c4)nn(C4CCCC4)c3c2)cc1 [Compound 38]
IC50 (Table 3, IC50 class): > 1000 nM

CCC(CC(=O)O)c1ccc(OCc2ccc3c(-c4ccccc4)nn(C(C)C)c3c2)cc1 (centres unmarked) [Compound 9, 3-(4-((1-isopropyl-3-phenyl-1H-indazol-6-yl)methoxy)phenyl)pentanoic acid]
inhibition at 10 µM: 81%

C=CCOc1ccc(-c2nn(C3CCCC3)c3cc(COc4ccc(C(C)CC(=O)O)cc4)ccc23)cc1 (centres unmarked) [Compound 30, 3-(4-((3-(4-(allyloxy)phenyl)-1-cyclopentyl-1H-indazol-6-yl)methoxy)phenyl)butanoic acid]
IC50 (Table 3, IC50 class): 100 to 1000 nM

C[C@@H](CC(=O)O)c1ccc(OCc2ccc3c(-c4cccc(CO)c4)nn(C4CCCC4)c3c2)cc1 [Compound 54, (S)-3-(4-((1-cyclopentyl-3-(3-(hydroxymethyl)phenyl)-1H-indazol-6-yl)methoxy)phenyl)butanoic acid]
IC50 (Table 4, IC50 class): > 1000 nM

CC(CC(=O)O)c1ccc(OCc2ccc3c(-c4cc(Cl)nc(Cl)c4)nn(C4CCCC4)c3c2)cc1 (centres unmarked) [Compound 33, 3-(4-((1-cyclopentyl-3-(2,6-dichloropyridin-4-yl)-1H-indazol-6-yl)methoxy)phenyl)butanoic acid]
IC50 (Table 3, IC50 class): > 1000 nM

CC(CC(=O)O)c1ccc(OCc2cnc3c(-c4cc(F)c(O)c(F)c4)nn(C4CCCC4)c3c2)cc1 (centres unmarked) [Compound 74, 3-(4-((1-cyclopentyl-3-(3,5-difluoro-4-hydroxyphenyl)-1H-pyrazolo[4,3-b]pyridin-6-yl)methoxy)phenyl)butanoic acid]
IC50 (Table 4, IC50 class): 100 to 1000 nM

CC(CC(=O)O)c1ccc(OCc2ccc3c(-c4cc(F)c(/C=N/O)c(F)c4)nn(C4CCCC4)c3c2)cc1 (centres unmarked) [Compound 34, (E)-3-(4-((1-cyclopentyl-3-(3,5-difluoro-4-((hydroxyimino)methyl)phenyl)-1H-indazol-6-yl)methoxy)phenyl)butanoic acid]
IC50 (Table 3, IC50 class): 100 to 1000 nM

CC(CC(=O)O)c1ccc(OCc2ccc3c(-c4ccccc4)nn(C)c3c2)cc1 (centres unmarked) [Compound 77, 3-(4-((1-methyl-3-phenyl-1H-indazol-6-yl)methoxy)phenyl)butanoic acid]
inhibition at 10 µM: 24%

C[C@@H](CC(=O)O)c1ccc(OCc2ccc3c(-c4ccc(C(=O)O)cc4)nn(C4CCCC4)c3c2)cc1 [Compound 51, (S)-4-(6-((4-(1-carboxypropan-2-yl)phenoxy)methyl)-1-cyclopentyl-1H-indazol-3-yl)benzoic acid]
IC50 (Table 3, IC50 class): 100 to 1000 nM

C[C@@H](CC(=O)O)c1ccc(OCc2cc(F)c3c(-c4cc(Cl)c(O)c(Cl)c4)nn(C4CCCC4)c3c2)cc1 [Compound 69, (S)-3-(4-((1-cyclopentyl-3-(3,5-dichloro-4-hydroxyphenyl)-4-fluoro-1H-indazol-6-yl)methoxy)phenyl)butanoic acid]
IC50 (Table 4, IC50 class): < 100 nM

C[C@@H](CC(=O)O)c1ccc(OCc2ccc3c(-c4cc(F)c(CO)c(F)c4)nn(C4CCCC4)c3c2)cc1 [Compound 47, (S)-3-(4-((1-cyclopentyl-3-(3,5-difluoro-4-(hydroxymethyl)phenyl)-1H-indazol-6-yl)methoxy)phenyl)butanoic acid]
IC50 (Table 3, IC50 class): < 100 nM

CC(CC(=O)O)c1ccc(OCc2ccc3c(-c4ccncc4)nn(C4CCCC4)c3c2)cc1 (centres unmarked) [Compound 23, 3-(4-((1-cyclopentyl-3-(pyridin-4-yl)-1H-indazol-6-yl)methoxy)phenyl)butanoic acid]
IC50 (Table 2, IC50 class): > 1000 nM

CC(CC(=O)O)c1ccc(OCc2ccc3c(-c4ccccc4)nn(C(C)C)c3c2)cc1 (centres unmarked) [Compound 7, 3-(4-((1-isopropyl-3-phenyl-1H-indazol-6-yl)methoxy)phenyl)butanoic acid]
inhibition at 10 µM: 81%
